Experiments:
rabbits = assay: Primary skin irritation test on animals (Draize P.I.I.); assay type: in vivo; details: 1% in 1,3-butylene glycol:ethanol=7:3, 0.5 ml, observed 24 and 72 hours later
Description: This test was performed for six (6) healthy male rabbits whose hairs on both sides of the backs were cut. The compounds of Examples 1˜6 were dissolved in 1,3-butylene glycol:ethanol=7:3, to obtain 1% concentration of test samples. 0.5 ml of each test samples were applied to right side area of 2.5 cm×2.5 cm. No sample was treated on left side as a control. 24 hours and 72 hours later, skin abnormality such as erythema, crust and edema was observed. Based on the score of skin response, skin irritation was estimated according to Draize's P.I.I. (Primary Irritation Index) and compared with that of retinoic acid.

Human fibroblasts [1] = assay: Collagenase-inhibiting effect (collagenase expression, ELISA kit); assay type: cell-based; details: 10^-4 M, 24 hours, relative to untreated control group = 100
Description: The collagenase-inhibiting effect of hydroxy pyranone derivatives obtained in Examples 1˜6 was compared with those of retinol and retinoic acid.
Human fibroblasts were cultured in Dulbecco's Modified Eagle's Medium (DMEM) supplemented with 2.5% fetal bovine serum. The fibroblasts were seeded into a 96-well microtiter plate to a density of 5,000 cells/well, and then cultured to 70˜80% of growth. The plate was treated with test samples at a concentration of 10^−4M for 24 hours, then the cultured medium and the cells were raked up and recovered. From the recovered culture, collagenase production was measured with collagenase kit (Catalog #: RPN 2610) commercialized by Amersham Pharmacia Biotech. First, the recovered culture was added into a 96-well plate wherein primary collagenase antibodies were uniformly spread, and then antigen-antibody reaction was performed in an incubator for 3 hours. Later, secondary collagenase antibodies bonded with chromophore were added to the 96-well plate and reacted for 15 minutes. Then, color former was added thereto in order to induce development at the room temperature for 15 minutes, and 1M of sulfuric acid was added to stop the reaction. The reaction solution became yellow, and the color density depends on the progress of the reaction. The absorbance of the yellow 96-well plate was measured at 405 nm with absorptiometer. The expression of collagenase was calculated by the following equation 1. No sample was treated in the control group.
[Equation 1] The expression of collagenase (%)=[(Absorbance of test group)/(Absorbance of control group)]×100
The expression of collagenase was evaluated as a relative value compared with that of the control group of which the expression of collagenase was set to be 100.

[2] = system: healthy females and males; assay: Human patch test; assay type: in vivo; details: 1% in patch base
Description: This test was performed for thirty (30) healthy females and males aged on average 24.8 years and having no experience of hypersensitivity, according to method of CTFA Guideline (The Cosmetic, Toiletry and Fragrance Association. Inc. Washington, D.C., 20023, 1991). Each compound of Examples 1˜6 was dissolved in patch base having the composition of Table 6 to be 1% concentration as for test materials, and 20 μl of each test materials was dropped into a Finn chamber respectively, then attached to the forearm of the subject and fixed with a micropore tape. After 24 hours of patching, the patches were removed and the test sites were marked with marking pen. The observations of the test sites were made after 24 and 48 hours from the patching.
The average response of Table 8 was calculated by the following equation 4. [formula]

white guinea pigs = assay: Phototoxicity test; assay type: in vivo; details: 1% (w/v) solution, UVA 15 J/cm^2, observed at 24, 48 and 72 hours
Description: This test was performed for ten (10) white guinea pigs whose hairs on both sides of the backs were cut, and fixed. On the back of the guinea pig, six (6) test sites measuring 2.5 cm×2.5 cm, three (3) per each side, were sectioned. Right sites were prepared as controls with no irradiation (UV non-irradiation sites) and left sites were irradiated (UV irradiation sites). Vehicle (1,3-butylene glycol:ethanol=7:3) was used as a negative control, and 0.1% concentration of 8-MOP (methoxypsoralene) was used as a positive control; and 1% (w/v) solutions of the compounds of Examples 1˜6 were applied to either site with an amount of […] for each site. 30 minutes later, right sites were shielded with aluminum foil and UVA(320˜380 nm) was irradiated at a distance of about 10 cm therefrom with Waldmann to the final energy of 15 J/cm^2. After 24, 48 and 72 hours elapsed, skin response of guinea pig was observed. Erythema and edema were scored from 0 to 4 points as shown in the Table 3, and skin response was evaluated by summing the scores. Maximum scores were selected when measured on each elapsed time, i.e. 24, 48 and 72 hours, and irritation index was calculated according to the following equation 2. Then, phototoxic index was calculated according to the following equation 3.
[Equation 2] Irritation index=(Maximum of erythema+Maximum of edema)/Number of animals [Equation 3] Phototoxic index=(Irritation index of UV irradiation site)−(Irritation index of UV non-irradiation site)

Human fibroblasts [3] = assay: Effect on biosynthesis of collagen (procollagen type (I) ELISA); assay type: cell-based; details: 10^-4 M, 24 hours, relative to untreated control group = 100
Description: The effect of the hydroxy pyranone derivatives obtained in Examples 1˜6 on biosynthesis of collagen was compared with those of retinol and retinoic acid.
Human fibroblasts were seeded into a 24-well plate to a density of 10^5 cells/well and then cultured to 90% of growth. The plate was washed with PBS (phosphate buffered saline) and treated with test samples at a concentration of 10^−4M, and then incubated in a CO2 incubator for 24 hours. From its supernatant, procollagen production was measured with procollagen type (I) ELISA kit. The biosynthesis of collagen was evaluated as a relative value compared with that of the control group, which is not treated with sample and of which the value of biosyntheis of collagen was set to be 100.

Compound: O=C(OCc1cc(=O)c(O)co1)c1ccc2c(c1)OCO2 [Compound of Ex. 1, (5-hydroxy-4-oxo-4H-pyran-2-yl)methyl 2H-benzo [3,4-d] 1,3-dioxolan-5-carboxylate]
- Evaluation (skin irritation) (rabbits): No irritation
- P. I. I. (Primary Irritation Index) (rabbits): 0.375
- Expression of collagenase (%) (Human fibroblasts [1]): 83%
- Average Response (n = 30) ([2]; calculated by equation 4, below 1 = no irritation): 0.83
- Number of the subjected showing response, 24 hours later, − (No visible response) ([2]; n = 30, 24 hours later, grade 0): 28
- Number of the subjected showing response, 24 hours later, ± (Mild erythema) ([2]; n = 30, 24 hours later, grade 1): 2
- Number of the subjected showing response, 24 hours later, + (Intense erythema) ([2]; n = 30, 24 hours later, grade 2): 0
- Number of the subjected showing response, 24 hours later, + + (Intense erythema with edema) ([2]; n = 30, 24 hours later, grade 3): 0
- Number of the subjected showing response, 24 hours later, + + + (Intense erythema with edema and vesicle) ([2]; n = 30, 24 hours later, grade 4): 0
- Number of the subjected showing response, 48 hours later, − (No visible response) ([2]; n = 30, 48 hours later, grade 0): 30
- Number of the subjected showing response, 48 hours later, ± (Mild erythema) ([2]; n = 30, 48 hours later, grade 1): 0
- Number of the subjected showing response, 48 hours later, + (Intense erythema) ([2]; n = 30, 48 hours later, grade 2): 0
- Number of the subjected showing response, 48 hours later, + + (Intense erythema with edema) ([2]; n = 30, 48 hours later, grade 3): 0
- Number of the subjected showing response, 48 hours later, + + + (Intense erythema with edema and vesicle) ([2]; n = 30, 48 hours later, grade 4): 0
- Evaluation (phototoxicity) (white guinea pigs): No phototoxicity
- Phototoxic index (white guinea pigs; below 0.5 = no phototoxicity): 0
- Biosynthesis of collagen (%) (Human fibroblasts [3]): 118%

Source: patent US6916844B2, “Hydroxy pyranone derivative and preparation method thereof” (Amorepacific Corporation, priority 2002, dated 2005)
